Measured values published in patent US10413517B2, “Composition and method for the treatment of neurological diseases and cerebral injury” (UNIVERSITY OF NOTRE DAME DU LAC, priority 2014, dated 2019).

Columns and labels:
Assay type in all cases: in vivo, mouse
Npc1 transcript = assay: qPCR of Npc1 transcript in brain; settings: at 100 days
Protocol: (§1) Vorinostat (50 mg/Kg)—Vorinostat was first dissolved in DMSO (100 mg/ml) and then diluted with 9 volume of Polyethylene Glycol 400 (PEG). This drug solution was named as ‘solution A’. Solution A was diluted with equal volume of water where the final concentration of each component was as follows; Vorinostat, 5 mg/ml; DMSO, 5% and PEG, 45%. Mice were given weekly intraperitoneal (i.p) injections starting at 21 days. Vorinostat (100 mg/Kg)—Vorinostat was first dissolved in DMSO (200 mg/ml) and then mixed with 9 volumes of PEG. Rest of the methods and injections plan were as described above. HPBCD (4000 mg/Kg)—40% HPBCD solution prepared in water. Mice were given weekly i.p injections starting at 7 days. HPBCD (2000 mg/Kg)—20% HPBCD solution prepared in water. Mice were given weekly i.p injections starting at 7 days. TCF (Vorinostat, 50 mg/Kg+HPBCD, 2000 mg/Kg, DMSO, 5%+PEG, 45%)—To prepare the formulation, the ‘solution A’ was first prepared as described above and equal volume of 40% HPBCD solution was slowly layered on top of it. The solution was gently mixed for 10 min at RT on rocker set at medium speed. […]
(§2) Quantitative PCR (qPCR) was performed using Power SYBR Green RNA-to-CT 1-Step Kit and an ABI Prism 7500 Fast real-time PCR system (Applied Biosystems, Grand Island, USA). […] The relative amount of transcript was determined using comparative CT method. […]

Npc1^nmf164 mice = assay: Neurobehavioral assessment (cumulative disease score 0-13); settings: for cumulative neurobehavioral disease score: at 105-112 days, scale 0-13, Vo 50 mg/Kg, 2×HPBCD 4000 mg/Kg, TCF; for onset of individual symptoms (gait, grooming, limb tone, weight): weekly i.p. treatment
Protocol: A modified version of previously described method (Carroll et al., 2010) was used for assessing the neurobehavioral functions in mice. Six different parameters (FIG. 3A) associated with neurobehavioral functions of mice were assessed. Each mouse was assessed individually in an observation box (length, 31.8 cm, width, 19.8 cm and height, 10.5 cm) with a grid floor. A mouse was assessed for tremor (0 and 2), body position (0, 1 and 2), gait (0, 1 and 2), grooming (0, 1 and 2), limb tone (0, 1 and 2), and weight loss (0, 1, 2 and 3). For each symptom except weight, a mouse received a score 0 if no symptom was observed and score 2 when the most severe impairment in the function was seen. A mouse was given score 0 for weight loss below 5%, 1 for 5-10%, 2 for >10 and up to 20%, and 3 for >20 up to 30%. A cumulative score of 0-3 correlate with no neurobehavioral impairment and a score of 13 is the most impaired neurobehavioral function. Operator-independence scoring was also tested by two independent blinded operators on 6 NPC (Npc1^nmf164) and 4 healthy control (Npc1^+/nmf164) mice.

macrophages in the liver = assay: Liver macrophage labeling (anti-CTSS immunofluorescence); settings: 100 days, Vo 50 mg/Kg, HPBCD 2000 mg/Kg, TCF
Protocol: (§3) Mice were sacrificed by asphyxiation using CO2. Harvested organs were immersed fixed in 10% neutral buffered formalin (˜4% formaldehyde) for 24 hrs at RT. The organs were subsequently stored in 70% alcohol at RT until transfer to paraffin. Paraffin-embedded tissue sections (4-5 μm) were dewaxed in xylene and alcohol. Calbindin antigen retrieval was done by pre-incubating deparaffinized samples with 0.05% proteinase K (Dako, Germany) in 50 mM Tris-HCl (pH 7.5) for 8 min at RT. CTSS and NPC1 was retrieved by boiling the sections in acidic condition for 30 min. Blocking was done either with 2% goat serum (for calbindin and NPC1) or 2% rabbit serum (for cathepsin S) for 30 min at RT. Sections were incubated with anti-calbindin (1:1000, C9848, Sigma), anti-cathepsin S (20 μg/ml, M-19, Santa Cruz Biotechnology), anti-NPC1 (custom made against human NPC1 protein, 20 μg/ml) overnight at 4° C. The appropriate FITC or TRITC-conjugated secondary IgG (MP Biomedicals, Solon, Ohio, USA) antibodies were used at 1:200 dilution. Sections were subsequently washed with PBS containing DAPI (0.5 μg/ml). Vectashield (Vector laboratories) was used as mounting medium and processed for fluorescence microscopy.
(§4) Tissue sections after IFA and filipin stained fibroblasts were visualized with 40× oil-immersion objective lens (NA 1.35). Filipin stain was visualized using DAPI filter. Digital image collection were performed using an Olympus IX inverted fluorescence microscope and a Photometrix cooled CCD camera (CH350/LCCD) driven by DeltaVision software from Applied Precision (Seattle, Wash., USA). DeltaVision software (softWoRx) was used to deconvolve these images. Images are single optical sections. Images were analyzed using ImageJ software (NIH, MD, USA).

Purkinje cells = assay: Calbindin immunofluorescence, Purkinje cell count in cerebellar sections; settings: day 100, once weekly dosing
Protocol: as §3, §4

Calbindin1 transcripts = assay: qPCR of Calbindin1 transcripts in the brain; settings: day 100, once weekly dosing; Vo 50 mg/Kg; 2×HPBCD 4000 mg/Kg; TCF
Protocol: as §1, §2

Row | Structure (SMILES) | Npc1 transcript levels in the brain (Npc1 transcript) | cumulative neurobehavioral disease score (Npc1^nmf164 mice) | onset of individual symptoms (gait, grooming, limb tone, weight) (Npc1^nmf164 mice) | macrophages in the liver (histology) (macrophages in the liver) | Purkinje cells in the cerebellum (in words) (Purkinje cells) | Purkinje cells in the cerebellum (in words) (Purkinje cells; listed as 2×HPBCD) | expression of calbindin transcripts in the brain (Calbindin1 transcripts) | macrophages in the liver (histology) (macrophages in the liver; listed as Vo) | Purkinje cells in the cerebellum (in words) (Purkinje cells; listed as Vo)
1 | CC(O)COC[C@H]1O[C@@H]2O[C@H]3[C@H](O)[C@@H](O)[C@@H](O[C@H]4[C@H](O)[C@@H](O)[C@@H](O[C@H]5[C@H](O)[C@@H](O)[C@@H](O[C@H]6[C@H](O)[C@@H](O)[C@@H](O[C@H]7[C@H](O)[C@@H](O)[C@@H](O[C@H]8[C@H](O)[C@@H](O)[C@@H](O[C@H]1[C@H](O)[C@H]2O)O[C@@H]8COCC(C)O)O[C@@H]7COCC(C)O)O[C@@H]6COCC(C)O)O[C@@H]5COCC(C)O)O[C@@H]4COCC(C)O)O[C@@H]3COCC(C)O (stereo partly drawn) [HPBCD, 2-Hydroxypropyl-β-cyclodextrin] | little or no effect on brain Npc1 transcript levels | 6-8 | Worsening in gait, grooming and weight were also delayed by 2×HPBCD, but less so than by the TCF | Foamy macrophages were barely seen | Few lightly stained Purkinje cells | minor protection of Purkinje cell | no change or depressed levels of calbindin transcripts |  | 
2 | O=C(CCCCCCC(=O)Nc1ccccc1)NO [vorinostat] | little or no effect on brain Npc1 transcript levels | 9-11 | no consistent, significant advantage in any symptomatic read out | also had effect but less so than TCF or HPBCD | no effect |  | no change or depressed levels of calbindin transcripts | reduced the clustering of macrophages | Loss of Purkinje cells
